The values below come from patent US9775844B2, “Heterocyclic compounds and uses thereof” (Infinity Pharmaceuticals, Inc., priority 2014, dated 2017).

Series [1] is described as follows: Oral exposure in the monkey. The format is in vivo.
For a further series, the system named is CT26 colon carcinoma. Description: CT26 allograft model of mouse colon cancer. Format: in vivo. The settings on record: FIG. 28. The procedure:
CT26 is an N-nitroso-N-methylurethane-(NNMU) induced, undifferentiated colon carcinoma cell line. It was cloned to generate the cell line designated CT26.WT […] number CRL-2638). 5-6 week old female, Balb/c mice (Jackson Labs) were implanted subcutaneously with 5×10^5 CT26 cells in 200 μl PBS. CT26 cells were cultured in DMEM supplemented with 10% FBS.

Series [2] has as its system CD11b+ myeloid cells in 4T1 tumors. Description: Immunohistochemistry of CD11b / CD68 myeloid cells in 4T1 tumors. The format is in vivo, mouse. The settings on record: vs vehicle/controls. The procedure:
Immunohistochemistry was performed to determine the distribution of immune cells within the tumor. In particular, CD11b myeloid cells were examined, as were regulatory vs. effector T cells (CD3, CD4, CD8, FoxP3). Briefly, IHC for CD11b or CD68+ was performed as follows. CD11b antibodies were available from Abcam, clone I-70, Catalong # ab 8878. CD68 antibodies were available from Abcam, clone FA-11, catalog # ab 53444. Tissues were fixed in cold methanol, air-dried, and then stained using a Res IHC Omni-UltraMap HRP XT protocol.
Without being bound by a particular theory, the decrease in the pro-tumorigenic tumor associated myeloid cells can result in activation of cytotoxic T-cells and anti-tumor immunity. […] When the images were quantified as CD11b+ cells per total viable cells (FIG. 37E), a Student t-Test p-value of 0.0355 was obtained when comparing the Compound BB-treated cells to controls. When the images were quantified as CD11b+ stained area per total visible area (FIG. 37F), a Student t-Test p-value of 0.0441 was obtained when comparing the Compound BB-treated cells to controls. […] When the images were quantified as CD11b+ cells per total viable cells (FIG. 37G), a Student t-Test p-value of 0.0864 (d16) or 0.3967 (d22) was obtained when comparing the Compound BB-treated cells to controls. […]

The nature of series [3]: Target organ toxicity (TOT) study, 10 days oral. Format: in vivo.
Protocol: A target organ toxicity (TOT) study was performed in rats. […] This study assessed clinical observations/mortality, body weights, clinical pathology, toxicokinetics, and histopathology of select tissues. The tissues studied were: Adrenal gland, Bone marrow (femur), Brain, Small Intestine (including GALT), Heart, Large Intestine, Kidney, Stomach, Liver, Pancreas, Spleen, Testis, and Thymus. Doses were selected based on repeat-dose tolerability study, PK and plasma protein binding, and cellular IC50s for PI3K isoforms.
For series [4], the system named is suppression of spleen T cell proliferation by CT26 tumor cells. In words: Ex vivo T cell proliferation assay with CT26 tumor cells (CFSE). The format is cell-based, mouse. Conditions: tumors from treated mice. The procedure: The duration of the study was 1 week under treatment. 5-6 week old female, Balb/c mice (Jackson Labs) implanted subcutaneously with 5×10^5 CT26 cells in 100 μl PBS. CT26 cells were cultured in RPMI supplemented with 10% FBS. Dosing commenced when tumors reached an average volume of 500-600 mm^3
For group 3 (αPD-L1), the mice were dosed once, IP, 200 ug (200 uL from 1 mg/ml stock).
Mice were monitored daily for adverse clinical effects. Body weights and tumor luminescent were measured two times per week. At the end of the study, tumors were harvested and cut into 3 parts; one piece for CTL killing assay, one piece for CSFE proliferation assay and one piece (split into two) for OCT/FFPE.
Spleens from 3 vehicle treated tumor bearing mice were physically dissociated in T cell media and passed through a 70 micron filter. After red cell lysis, the cells were pooled, brought up in PBS and stained with CFSE (invitrogen). After washing, these cells were brought up in 20 ml T cell media. Half the cells received Dynal mouse activator beads (CD3/CD28 crosslinking at a 1:1 […]). CD3/CD28 beads induce proliferation in splenocytes from tumor bearing mouse (data not shown).
The cells were treated with red cell lysis buffer, washed, and re-suspended in 10 ml T cell media. 2 mls of the each tumor cell suspension were plated into each of two 12 well plates. […]

A short description of series [5]: Cellular membrane permeability. Format: in vitro ADME. The text has this:
These properties indicate the compound's suitability for in vivo administration.

Series [6] relates to differentiation of myeloid cells into M2 TAMs. Description: Murine M2 TAM differentiation (ARG1 levels). The format is cell-based, mouse. The settings on record: FIG. 22A/22B. The text has this:
High ARG1 (Arginase-1) levels indicate that myeloid cells are differentiating into M2 macrophages, so lower ARG1 levels relative to a control indicate interference with differentiation into M2 macrophages. Expression of Arginase-1 depletes the tumor microenvironment of arginine, thereby promoting T cell death and NK cell inhibition. Schmid et. al., Proceedings: AACR 103rd Annual Meeting 2012, Cancer Research: Apr. 15, 2012; Volume 72, Issue 8, Supplement 1. […] M2 TAMs promote cancer cell survival (FIG. 23).
M2 macrophages can be produced as follows. Sacrifice mouse and collect femur and tibias Immerse the bones on a petri dish in 70% ethanol for 1-2 min, then remove the bones and let the ethanol dry off for 3-4 min. Cut off a very small portion of the end of the bones to make an easy access for needle insert. Using a 27 g needle filled will media containing DMEM+10% FBS+1% Pen/Strep (complete DMEM), expel the bone marrow from both ends of the bones into a 15 ml petri dish. Pipette the bone marrow to dissociate the bone marrow cells. Centrifuge and add 1× Red Cell lysis buffer to the pellet. Let RBC lyse for 2 min then add equal amount of complete DMEM and centrifuge. The bone marrow from one mouse can be divided into 2 petri dishes containing 7 ml of BMM media (DMEM+20% FBS+1% Pen/Strep+50 ng/ml M-CSF). […] The cells are ready for polarization on day 6. […]

For series [7], the system named is bone marrow cells differentiating into MDSCs. Description: Myeloid Derived Suppressor Cell differentiation assay. The settings on record: FIG. 24A/24B. The format is cell-based. As for the experimental part: A similar experiment was performed on bone marrow cells differentiating into MDSCs.

`C[C@H](NC(=O)c1c(N)nn2cccnc12)c1cc2cccc(C#Cc3cnn(C)c3)c2c(=O)n1-c1ccccc1` [Compound BB]: the oral exposure result in series [1] is on record as “high”. Besides, the “MDSC expansion after cyclophosphamide treatment” value in the series with CT26 colon carcinoma is “decreased”. For the same compound, in series [2], the “CD11b+ cells in 4T1 tumors (IHC)” value is reported as “statistically significant reduction in CD11b+ cells”. Also, the “decrease in body weights compared to vehicle” value in series [3] (high dose animals (50 mg/kg/day)) is 5-8%. The “histopathology, thymus” value in series [3] (males at ≧7.5 mg/kg/day, females at 50 mg/kg/day) is “minimal/mild lymphoid depletion”. The “histopathology, spleen (marginal zone and PALS)” value in series [3] (primarily at doses ≧20 mg/kg/day) is reported as “minimal/mild lymphoid depletion”. Further, the clinical pathology result in series [3] (primarily in 20 and 50 mg/kg/day groups) is “minimal changes in neutrophils, lymphocytes, and fibrinogen”. For the same compound, the “histopathology, gross changes” value in series [3] (rats, oral, 10 days) is given as “no significant gross changes”. Besides, the tolerability entry in series [3] (rats, oral, 10 days, 1 to 50 mg/kg/day) is reported as “well-tolerated”. The “mortality and clinical signs” value in series [3] (rats, oral, 10 days, any dose level) is on record as “No mortality or clinical signs”. In addition, the “suppression of T cell proliferation by cells derived from CT26 mouse tumors” value in series [4] is given as “can release the suppression”. For the same compound, the cellular membrane permeability entry in series [5] is given as “high cellular membrane permeability”. Further, in series [5] (10 uM), the “Papp [10−6 cm/s] @ 10 uM” value is “High”. In series [6], the “M2 TAM differentiation (ARG1 levels)” value is “inhibited M2 TAM differentiation much more effectively than PI3K-δ inhibitor”. Moreover, in series [7], the “VEGF and ARG1 in MDSC differentiation assay” value was “suppressed”.
